{
  "source": "patent US20220017863A1",
  "about": "“SIRT2-ABLATED CHIMERIC T CELLS” (H. Lee Moffitt Cancer Center and Research Institute, Inc., priority 2019, published 2022)",
  "key": {"[1]": {"molecular_target": "T1, Sirt2 deacetylase activity (Homo sapiens, UniProt Q8IXJ6)", "T1 construct": "endogenous in cells; host or cells: human CD3+ T cells enriched from PBMC of healthy donors", "T1 sequence (Q8IXJ6 1-389)": "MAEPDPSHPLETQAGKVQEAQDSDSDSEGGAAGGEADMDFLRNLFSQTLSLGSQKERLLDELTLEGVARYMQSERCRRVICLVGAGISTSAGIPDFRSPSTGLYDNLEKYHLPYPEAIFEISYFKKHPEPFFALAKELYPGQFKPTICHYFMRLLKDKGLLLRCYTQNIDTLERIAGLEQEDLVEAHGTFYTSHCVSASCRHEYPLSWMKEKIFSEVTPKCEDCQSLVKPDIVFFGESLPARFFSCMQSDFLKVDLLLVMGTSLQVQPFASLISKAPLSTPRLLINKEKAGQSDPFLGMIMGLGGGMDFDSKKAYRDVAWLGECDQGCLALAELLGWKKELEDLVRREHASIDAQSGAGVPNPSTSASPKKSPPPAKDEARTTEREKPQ", "assay": "Western blot of acetylated α-tubulin in human CD3+ enriched T cells", "type": "cell-based", "conditions": "48 hr", "procedure": "(§1) Human peripheral blood mononuclear cells (PBMC) were obtained from healthy donors by density gradient centrifugation using Ficoll-Paque™ PLUS Media (GE Healthcare). CD3^+ lymphocytes were negatively enriched using human Pan T cell isolation Kit™ (Miltenyi Biotec).\nWhole cell lysates were prepared using lysis buffer (Pierce RIPA buffer, ThermoFisher Scientific) supplemented with cOmplete™ Protease Inhibitor Cocktail and PhosSTOP Phosphatase Inhibitor (Roche Applied Science).\nCell lysates (20 ug) or IP samples were loaded onto 10% SDS-PAGE and separated by electrophoresis followed by semi-dry transfer into polyvinylidene fluoride membranes (Immun-Blot PVDF membrane, Bio-Rad) using Trans-Blot Turbo transfer system (Bio-Rad). After transfer, the membranes were blocked at room temperature with Tris-buffered saline (TBS) containing 0.05% Tween-20 (TBST) and 5% (w/v) milk for 1 h and then incubated overnight at 4° C. with a specific primary antibody (indicated below). […] After washing 3 times with TBST, bound antibodies were detected by chemiluminescence using the Pierce™ ECL Western Blotting Substrate and the Super Signal West Femto Maximum Sensitivity Substrate kits (ThermoFisher Scientific). […]"}, "human CD3+ T cells": {"tested_on": "human CD3+ T cells", "assay": "Seahorse extracellular flux analysis of CD3-stimulated human CD3+ T cells from healthy donors", "type": "cell-based", "conditions": "anti-CD3 plus inhibitor vs vehicle, 48 hr", "procedure": "as §1\nExtracellular acidification rates (ECAR) were measured using the Seahorse XF analyzer (Agilent). Glycolysis Stress Test (GST) and glycolytic rate assay (GRA) were performed according to kit manufacturer's instructions.\nThe day of the assay, 2×10^5 activated T cells were plated in Cell-Tak (Corning)-coated XF96 plates in XF media (XF RPMI Medium pH 7.4 containing 2 mM L-glutamine only for GST or supplemented with 10 mM glucose, 2 mM L-glutamine and 1 mM sodium pyruvate for GRA test, all from Agilent technologies) via centrifugation to ensure cell attachment. Cells were equilibrated for 1 hour in a non-CO2 incubator before starting the assay.\nFor GST, ECAR was measured under basal conditions and in response to 10 mM glucose, 1 μM oligomycin and 50 mM 2-DG successively to calculate basal glycolytic rate, glycolytic capacity (in response to oligomycin), and glycolytic reserve (glycolytic capacity−basal rate). For GRA, ECAR was measured under basal conditions and in response to 0.5 μM rotenone+0.5 μM antimycin A and 50 mM 2-DG successively to calculate basal glycolysis and compensatory glycolysis (in response to rotenone+antimycin A). Results were normalized to total protein quantified using Pierce™ BCA Protein Assay Kit (ThermoFisher Scientific).\nHuman peripheral blood mononuclear cells (PBMC) were obtained from healthy donors by density gradient centrifugation using Ficoll-Paque™ PLUS Media (GE Healthcare). CD3^+ lymphocytes were negatively enriched using human Pan T cell isolation Kit™ (Miltenyi Biotec). […].\nExtracellular acidification rate (ECAR) and oxygen consumption rate (OCR) were measured using the Seahorse XF analyzer (Agilent technologies). Glycolysis Stress Test (GST), glycolytic rate assay (GRA) and mitochondrial stress test (MST) were purchased from Agilent technologies and performed according to the kit manufacturer's instructions. […]\nFor GST, ECAR and OCR were measured under basal conditions and in response to 10 mM glucose, 1 μM oligomycin and 50 mM 2-DG successively to calculate basal glycolytic rate, glycolytic capacity (in response to oligomycin), and glycolytic reserve (glycolytic capacity basal rate).\nFor GRA, ECAR and OCR were measured under basal conditions and in response to 0.5 μM roteone/antimycin A and 50 mM 2-DG successively to calculate basal glycolysis and compensatory glycolysis (in response to rotenone/antimycin A)."}},
  "note": "“Also recorded” adds a separate entry of the source.",
  "data": [
    {"compound": "N#C/C(=C/c1ccc(-c2cc(Cl)ccc2Cl)o1)C(=O)Nc1cccc2ncccc12", "note": "[AGK2]", "values": [
      {"measurement": "capacity to block Sirt2 deacetylase activity, monitored by acetylated α-tubulin levels", "setting": "[1]", "result": "confirmed; also recorded: validated"},
      {"measurement": "OxPhos", "setting": "human CD3+ T cells", "result": "increased"},
      {"measurement": "aerobic glycolysis (ECAR/PER)", "setting": "human CD3+ T cells", "result": "increases; also recorded: augments"}
    ]}
  ]
}
